Assays:
AIMP2-DX2 = target: T1, AIMP2-DX2 (Homo sapiens, UniProt Q13155); assay: DX2-nanoluciferase assay (DX2 expression change) in transfected A549 cells; conditions: for inhibition at 10 µM / inhibition at 40 µM: A549, 4 h; for inhibition at 10 µM: read-out: DX-Nanoluciferase activity (10 μM), 10 μM, 4 hours treatment, A549 cells transfected with nanoluciferase-DX2; for inhibition at 40 µM: read-out: DX-Nanoluciferase activity (40 μM), 40 μM, 4 hours treatment, A549 cells transfected with nanoluciferase-DX2
T1 sequence (Q13155 1-251 isoform Q13155-2): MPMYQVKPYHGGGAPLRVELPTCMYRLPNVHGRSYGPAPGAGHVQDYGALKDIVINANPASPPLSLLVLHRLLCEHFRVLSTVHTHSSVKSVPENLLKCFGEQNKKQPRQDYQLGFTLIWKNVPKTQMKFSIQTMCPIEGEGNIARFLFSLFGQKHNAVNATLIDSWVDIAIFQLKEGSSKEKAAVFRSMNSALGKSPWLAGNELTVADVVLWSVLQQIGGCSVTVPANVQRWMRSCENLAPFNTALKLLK
Procedure: After cloning DX2 into a plasmid expressing nanoluciferase, the plasmid was transfected into A549 cells. Transfected cells were seeded 1×10^4 per well in a 96-well plate and stabilized for 12 hours. […] Cell viability was measured by the MTT method after 72 hours of treatment with each concentration of the compound in A549 cells.

A549 cells = assay: Cell viability by MTT method in A549 cells; assay type: cell-based; set-up: concentration or dose not given beside the values; conditions: 72 hours treatment
[1] = inhibitory effect on AIMP2-DX2 expression

| Structure (SMILES) | inhibition at 10 µM (AIMP2-DX2) [%] | Cell Viability (% inhibition) (A549) (A549 cells) [%] | inhibition at 40 µM (AIMP2-DX2; [1]) [%] | DX-Nanoluciferase activity (40 μM) (AIMP2-DX2; 40 μM, 4 hours treatment, A549 cells transfected with nanoluciferase-DX2, inhibitory effect on AIMP2-DX2 expression) |
| --- | --- | --- | --- | --- |
| Cc1ccc(S(=O)(=O)N[C@@H](Cc2c[nH]c3ccccc23)C(=O)NCCc2ccccc2)cc1 [Compound 188, (S)-3-(1H-indol-3-yl)-2-(4-methylphenylsulfonamido)-N-phenethylpropanamide] | 61.1 ± 12.9 | 53.90 ± 1.97 | – | – |
| Cc1ccc(S(=O)(=O)N[C@H](C(=O)N2CCOCC2)C(C)C)cc1 [Compound 40, (S)-4-methyl-N-(3-methyl-1-morpholino-1-oxobutan-2-yl)benzenesulfonamide] | – | −5.41 ± 6.12 | 31.3 ± 10.3 | – |
| COc1ccc(-c2csc(NC(=O)[C@H](Cc3c[nH]c4ccc(C)cc34)NS(=O)(=O)c3ccc(Br)cc3)n2)cc1 [Compound 218, (S)-2-(4-Bromophenylsulfonamido)-N-(4-(4-methoxyphenyl)thiazol-2-yl)-3-(5-methyl-1H-indol-3-yl)propanamide] | 34.8 | 90.98 ± 1 | – | – |
| COc1ccc(-c2csc(NC(=O)[C@H](Cc3c[nH]c4ccc(F)cc34)NS(=O)(=O)c3ccc(Br)cc3)n2)cc1 [Compound 219, (S)-2-(4-Bromophenylsulfonamido)-3-(5-fluoro-1H-indol-3-yl)-N-(4-(4-methoxyphenyl)thiazol-2-yl)propanamide] | 46.9 ± 8.36 | 95.58 ± 0.08 | – | – |
| COc1cc(N2CCN(C(=O)OC(C)(C)C)CC2)ccc1NC(=O)[C@H](Cc1c[nH]c2ccccc12)NS(=O)(=O)c1ccc(C)cc1 [Compound 120, (S)-tert-Butyl 4-(4-(3-(1H-indol-3-yl)-2-(4-methylphenylsulfonamido)propanamido)-3-methoxyphenyl)piperazine-1-carboxylate] | 21.3 ± 14.2 | 66.51 ± 1.24 | – | – |
| Cc1ccc(S(=O)(=O)N[C@@H](Cc2cc3ccccc3[nH]2)C(=O)Nc2ccc(N3CCOCC3)cc2)cc1 [Compound 46, (S)-3-(1H-indol-2-yl)-2-(4-methylphenylsulfonamido)-N-(4-morpholinophenyl) propanamide] | – | 61.35 ± 10.27 | – | 67.1 ± 10.8 |
| Cc1ccc(S(=O)(=O)N[C@@H](Cc2c[nH]c3ccccc23)C(=O)N2CCOCCOCCOCC2)cc1 [Compound 105, (S)—N-(3-(1H-indol-3-yl)-1-oxo-1-(1,4,7-trioxa-10-azacyclododecan-10-yl)propan-2-yl)-4-methylbenzenesulfonamide] | – | 29.36 ± 7.43 | 57.1 ± 1.56 | – |
| CC(C)C[C@H](NS(=O)(=O)c1cccc([N+](=O)[O-])c1)C(=O)Nc1ccc(N2CCOCC2)cc1 [Compound 24, (S)-4-methyl-N-(4-morpholinophenyl)-2-(3-nitrophenylsulfonamido)pentanamide] | – | 18.38 ± 11.76 | 59.4 ± 2.3 | – |
| Cc1ccc(S(=O)(=O)N[C@@H](Cc2c[nH]c3ccccc23)C(=O)NCCc2ccc(C(=O)O)cc2)cc1 [Compound 220, (S)-4-(2-(3-(1H-indol-3-yl)-2-(4-methylphenylsulfonamido)propanamido)ethyl)benzoic acid] | 15.9 ± 19.4 | −11.09 ± 8.4 | – | – |
| Cc1ccc(S(=O)(=O)N[C@@H](Cc2c[nH]c3ccccc23)C(=O)Nc2ccc(N3CCOCC3)c(F)c2)cc1 [Compound 77, (S)—N-(3-fluoro-4-morpholinophenyl)-3-(1H-indol-3-yl)-2-(4-methylphenylsulfonamido)propanamide] | – | 80.59 ± 1.49 | 23.9 ± 7.01 | – |
| Cc1ccc(C(=O)N[C@@H](CC(C)C)C(=O)OCc2ccccc2)cc1 [Compound 50, (S)-benzyl 4-methyl-2-(4-methylbenzamido)pentanoate] | – | 75.41 ± 3.28 | 65.9 ± 4 | – |
| Cc1ccc(S(=O)(=O)N[C@@H](CC(C)C)C(=O)Oc2ccc(-c3csc(N)n3)cc2)cc1 [Compound 93, (S)-4-(2-Aminothiazol-4-yl)phenyl 4-methyl-2-(4-methylphenylsulfonamido)pentanoate] | – | 48.85 ± 9.03 | 22.5 ± 3.96 | – |
| Cc1ccc(S(=O)(=O)N[C@@H](Cc2ccc(C(=O)c3ccccc3)cc2)C(=O)Nc2ccc(N3CCOCC3)cc2)cc1 [Compound 115, (S)-3-(4-Benzoylphenyl)-2-(4-methylphenylsulfonamido)-N-(4-morpholinophenyl)propanamide] | 2.16 ± 6.66 | 0.35 ± 0.67 | – | – |
| CC(C)C[C@H](NS(=O)(=O)c1ccc(C(F)(F)F)cc1)C(=O)Nc1ccc(N2CCOCC2)cc1 [Compound 23, (S)-4-methyl-N-(4-morpholinophenyl)-2-(4-(trifluoromethyl)phenylsulfonamido)pentanamide] | – | 64.35 | 24.5 ± 4.4 | – |
| Cc1ccc(S(=O)(=O)N[C@@H](Cc2ccc3ccccc3c2)C(=O)Nc2ccc(N3CCOCC3)cc2)cc1 [Compound 117, (S)-2-(4-Methylphenylsulfonamido)-N-(4-morpholinophenyl)-3-(naphthalen-2-yl)propanamide] | -2.56 ± 9.56 | 4.59 ± 6.86 | – | – |
| Cc1ccc(S(=O)(=O)NCC(=O)N2CCOCC2)cc1 [Compound 155, 4-Methyl-N-(2-morpholino-2-oxoethyl)benzenesulfonamide] | – | 17.30 ± 0.81 | 31.3 ± 4.4 | – |
| Cc1ccc(S(=O)(=O)N[C@@H](CC(C)C)C(=O)N2CCOCCOCCOCC2)cc1 [Compound 3, (S)-4-methyl-N-(4-methyl-1-oxo-1-(1,4,7-trioxa-10-azacyclododecan-10-yl)pentan-2-yl)benzenesulfonamide] | – | 8.64 | 55.8 ± 14.8 | – |
| Cc1ccc(S(=O)(=O)N[C@@H](CC(C)C)C(=O)OCc2ccccc2)cc1 [Compound 49, (S)-benzyl 4-methyl-2-(4-methylphenylsulfonamido)pentanoate] | – | 96.77 ± 0.70 | 43.1 ± 6.46 | – |
| O=C(NCCc1ccc(F)cc1)[C@H](Cc1c[nH]c2ccccc12)NS(=O)(=O)c1ccc(Br)cc1 [Compound 198, (S)-2-(4-Bromophenylsulfonamido)-N-(4-fluorophenethyl)-3-(1H-indol-3-yl)propanamide] | 44.2 ± 8.7 | 82.05 ± 0.64 | – | – |
| Cc1ccc(S(=O)(=O)N[C@@H](CC(C)C)C(=O)Nc2nc(-c3ccc(F)cc3Br)cs2)cc1 [Compound 92, (S)—N-(4-(2-bromo-4-fluorophenyl)thiazol-2-yl)-4-methyl-2-(4-methylphenylsulfonamido)pentanamide] | – | 100.05 ± 1.22 | 31.5 ± 6.84 | – |
| Cc1ccc(S(=O)(=O)N[C@@H](Cc2c[nH]c3ccccc23)C(=O)Nc2ccc(N3CCNCC3)cc2)cc1 [Compound 124, (S)-3-(1H-indol-3-yl)-2-(4-methylphenylsulfonamido)-N-(4-(piperazin-1-yl)phenyl)propanamide] | 20.9 ± 9.8 | 16.44 ± 18.56 | – | – |
| Cc1ccc(S(=O)(=O)N[C@@H](CC(C)C)C(=O)Nc2nc(-c3ccc(OC(F)(F)F)cc3)cs2)cc1 [Compound 95, (S)-4-Methyl-2-(4-methylphenylsulfonamido)-N-(4-(4-(trifluoromethoxy)phenyl)thiazol-2-yl)pentanamide] | – | 92.97 ± 0.09 | 22.6 ± 5.29 | – |

— patent US20220204497A1, “NOVEL COMPOUND HAVING ANTICANCER ACTIVITY, AND METHOD FOR PRODUCING SAME” (MEDICINAL BIOCONVERGENCE RESEARCH CENTER, priority 2019, published 2022)
